By IC50 is commonly meant the concentration needed to halve the response being measured. Low readings indicate higher potency, high ones lower potency.

The values below come from ChEMBL document CHEMBL1142793, “Lead optimization of 4-(dimethylamino)quinazolines, potent and selective antagonists for the melanin-concentrating hormone receptor 1” (Bioorg Med Chem Lett, 2005).

In test [1] the target is Melanin-concentrating hormone receptor 1 (Homo sapiens, UniProt Q99705). The test is described as follows: Inhibitory activity against human CA-MCH-R1 (Melanin-concentrating hormone receptor 1) by using [125I](Phe13,Tyr19)MCH as radioligand expressed in HEK293 cells. Format: cell-based.
Test [2] deals with T1, Neuropeptide Y receptor type 5 (Homo sapiens, UniProt Q15761).
T1 sequence (Q15761 whole entry): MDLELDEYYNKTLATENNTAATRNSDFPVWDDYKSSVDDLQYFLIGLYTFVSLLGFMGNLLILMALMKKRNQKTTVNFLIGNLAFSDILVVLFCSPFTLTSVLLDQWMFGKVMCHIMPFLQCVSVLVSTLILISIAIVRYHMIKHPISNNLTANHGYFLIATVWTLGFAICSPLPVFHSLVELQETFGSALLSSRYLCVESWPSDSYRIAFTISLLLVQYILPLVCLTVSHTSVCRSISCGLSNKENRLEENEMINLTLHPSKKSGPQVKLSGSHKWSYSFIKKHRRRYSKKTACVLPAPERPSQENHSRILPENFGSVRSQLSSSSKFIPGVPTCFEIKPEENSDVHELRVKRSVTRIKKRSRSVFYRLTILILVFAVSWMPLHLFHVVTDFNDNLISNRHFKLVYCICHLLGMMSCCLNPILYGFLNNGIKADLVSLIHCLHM
The test is described as follows: Inhibitory activity against neuropeptide Y receptor type 5 by using [125I]PYY as radioligand expressed in COS-1 cells. Format: cell-based.

Test [3] deals with T2, Alpha-2A adrenergic receptor (Homo sapiens, UniProt P08913).
T2 sequence (P08913 whole entry): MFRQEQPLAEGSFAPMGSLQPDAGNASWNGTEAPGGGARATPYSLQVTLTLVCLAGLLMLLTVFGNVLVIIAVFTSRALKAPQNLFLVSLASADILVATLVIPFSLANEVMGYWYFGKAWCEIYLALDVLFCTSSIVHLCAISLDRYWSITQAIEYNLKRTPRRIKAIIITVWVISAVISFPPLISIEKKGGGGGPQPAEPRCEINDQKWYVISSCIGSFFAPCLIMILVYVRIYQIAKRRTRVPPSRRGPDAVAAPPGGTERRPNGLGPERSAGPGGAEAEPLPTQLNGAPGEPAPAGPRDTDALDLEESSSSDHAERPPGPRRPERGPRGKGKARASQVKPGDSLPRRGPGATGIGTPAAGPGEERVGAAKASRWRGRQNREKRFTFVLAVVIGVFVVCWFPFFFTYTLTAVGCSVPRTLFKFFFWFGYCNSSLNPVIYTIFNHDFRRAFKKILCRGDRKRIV
The test is described as follows: Inhibitory activity against alpha-2A adrenergic receptor by using [3H]MK-912 as radioligand expressed in COS-1 cells. It is filed as cell-based.

The species entered for another test is Homo sapiens. Description: Selective ratio against Alpha2A adrenergic receptor to that of MCH.

Sequence of Melanin-concentrating hormone receptor 1 (Q99705 whole entry): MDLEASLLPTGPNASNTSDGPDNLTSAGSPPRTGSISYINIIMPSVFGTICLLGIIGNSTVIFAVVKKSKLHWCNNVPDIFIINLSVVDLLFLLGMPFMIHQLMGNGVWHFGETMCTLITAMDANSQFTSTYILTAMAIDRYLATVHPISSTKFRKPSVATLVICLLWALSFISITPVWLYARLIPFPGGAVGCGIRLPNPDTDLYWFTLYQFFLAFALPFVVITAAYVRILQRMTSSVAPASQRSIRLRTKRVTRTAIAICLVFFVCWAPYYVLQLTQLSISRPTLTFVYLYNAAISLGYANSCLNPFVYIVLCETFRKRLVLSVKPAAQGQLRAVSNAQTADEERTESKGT

In the case of `CN(C)c1nc(NC2CCN(Cc3ccc(Br)cc3OC(F)(F)F)CC2)nc2ccccc12`, the IC50 is 320 nM in test [1], greater than 1000 nM in test [2] and 520 nM in test [3].
In the case of `CN(C)c1nc(N[C@H]2CC[C@@H](NC(=O)c3cccc(C#N)c3)CC2)nc2ccccc12`, the Selectivity in the test listed under Homo sapiens is 15. Besides, the IC50 turned out to be 10 nM in test [1] and 150 nM in test [3].
Turning to `CN(C)c1nc(N[C@H]2CC[C@@H](NC(=O)c3cccc([N+](=O)[O-])c3)CC2)nc2ccccc12`, in the test listed under Homo sapiens, the Selectivity came out at 14. In addition, the IC50 was found to be 6.8 nM in test [1] and 97 nM in test [3].
In the case of `CN(C)c1nc(NC2CCC(NC(=O)c3ccc(Br)cc3OC(F)(F)F)CC2)nc2ccccc12` (cis isomer), in the test filed under Homo sapiens, the Selectivity worked out at 2.4. Moreover, the IC50 was 160 nM in test [1], greater than 1000 nM in test [2] and 390 nM in test [3].
Regarding `CN(C)c1nc(NC2CCC(NCc3ccc(Br)cc3OC(F)(F)F)CC2)nc2ccccc12` (stereo unspecified), the concentration for half-maximal inhibition (IC50) in test [1] is 35 nM; in test [2], greater than 1000 nM; in test [3] it was 170 nM.
For the compound `CN(C)c1nc(N[C@H]2CC[C@@H](NC(=O)c3ccc(Cl)c(Cl)c3)CC2)nc2ccccc12`, the Selectivity in the test filed under Homo sapiens is 9.4. Also, the results for the IC50 in test [1] and in test [3] were 5 nM and 47 nM, respectively.
`CN(C)c1nc(N[C@H]2CC[C@@H](NC(=O)c3cccc(Cl)c3)CC2)nc2ccccc12`: in the test listed under Homo sapiens, the Selectivity was 17. In addition, the IC50 in test [1] came out at 4.5 nM; in test [3], 76 nM.
`CN(C)c1nc(N[C@H]2CC[C@@H](NC(=O)c3cccc(F)c3)CC2)nc2ccccc12`: the Selectivity in the test listed under Homo sapiens turned out to be 14. The IC50 in test [1] came out at 9.5 nM; in test [3], 130 nM.
Turning to `CN(C)c1nc(NC2CCN(C(=O)c3ccc(Br)cc3OC(F)(F)F)CC2)nc2ccccc12`, in test [1], the IC50 came to 1200 nM.
Take `COc1cc(OC)cc(C(=O)N[C@H]2CC[C@@H](Nc3nc(N(C)C)c4ccccc4n3)CC2)c1`: the Selectivity in the test listed under Homo sapiens worked out at 36. For the same compound, the IC50 was 2 nM in test [1] and 71 nM in test [3].
Take `CN(C)c1nc(N[C@H]2CC[C@@H](NS(=O)(=O)c3ccc(Br)cc3OC(F)(F)F)CC2)nc2ccccc12`: the results for the IC50 in test [1], in test [2] and in test [3] were 83 nM, 880 nM and 57 nM, respectively.
Take `Cc1cccc(C(=O)N[C@H]2CC[C@@H](Nc3nc(N(C)C)c4ccccc4n3)CC2)c1`: the Selectivity in the test filed under Homo sapiens came out at 24. The IC50 in test [1] turned out to be 4.6 nM; in test [3], 110 nM.
Regarding `CN(C)c1nc(NC[C@H]2CC[C@H](CNS(=O)(=O)c3ccc(Br)cc3OC(F)(F)F)CC2)nc2ccccc12`, the IC50 in test [1] amounted to 160 nM; in test [2] it was 2.7 nM; in test [3] it was 7.7 nM.
With `CN(C)c1nc(NCC2CCC(CN(C)S(=O)(=O)c3ccc(Br)cc3OC(F)(F)F)CC2)nc2ccccc12` (stereo unspecified), the figures for the IC50 in test [1], in test [2] and in test [3] were 5800 nM, 460 nM and 34 nM, respectively.
For the compound `CN(C)c1nc(N[C@H]2CC[C@@H](NC(=O)c3ccc(F)cc3)CC2)nc2ccccc12`, the Selectivity in the test filed under Homo sapiens is 16. Also, the IC50 in test [1] amounted to 9.4 nM; in test [3], 150 nM.
For the compound `CN(C)c1nc(N[C@H]2CC[C@@H](NC(=O)c3ccc(F)c(F)c3F)CC2)nc2ccccc12`, the Selectivity in the test filed under Homo sapiens worked out at 5.3. Moreover, the values for the IC50 in test [1] and in test [3] were 38 nM and 200 nM, respectively.
In the case of `CN(C)c1nc(N[C@H]2CC[C@@H](CNS(=O)(=O)c3ccc(Br)cc3OC(F)(F)F)CC2)nc2ccccc12`, the IC50 was determined as 140 nM in test [1], 120 nM in test [2] and 130 nM in test [3].
On to `CN(C)c1nc(N[C@H]2CC[C@@H](NC(=O)c3cccc(Br)c3)CC2)nc2ccccc12`, for which the Selectivity in the test filed under Homo sapiens is 11. In addition, the IC50 in test [1] was determined as 5.9 nM; in test [3], 63 nM.
Regarding `CN(Cc1ccc(Br)cc1OC(F)(F)F)CC1CCC(CNc2nc(N(C)C)c3ccccc3n2)CC1` (stereo unspecified), the IC50 is 5600 nM in test [1], greater than 1000 nM in test [2] and 44 nM in test [3].
For the compound `CN(C)c1nc(N[C@H]2CC[C@@H](NC(=O)c3cccc(C(F)(F)F)c3)CC2)nc2ccccc12`, the Selectivity in the test listed under Homo sapiens worked out at 4. For the same compound, the IC50 in test [1] is 15 nM; in test [3], 60 nM.
For the compound `CN(C)c1nc(NC2CCC(CNCc3ccc(Br)cc3OC(F)(F)F)CC2)nc2ccccc12` (cis isomer), the IC50 in test [1] is 4.9 nM; in test [2], 2400 nM; in test [3] it was 360 nM.
On the same counts, the results for `CN(C)c1nc(NC2CCC(CNC(=O)c3ccc(Br)cc3OC(F)(F)F)CC2)nc2ccccc12` (cis isomer) are 79 nM, 1800 nM and 570 nM.
The matching figures for `CN(C)c1nc(NCC2CCC(CNC(=O)c3ccc(Br)cc3OC(F)(F)F)CC2)nc2ccccc12` (stereo unspecified): 1500 nM, 470 nM and 9.9 nM.
`CN(C)c1nc(N[C@H]2CC[C@@H](NC(=O)c3ccccc3F)CC2)nc2ccccc12` displayed an IC50 in test [1] of 170 nM. This lies in the sub-micromolar range.
For `CN(C)c1nc(N[C@H]2CC[C@@H](NC(=O)c3ccc(F)c(F)c3)CC2)nc2ccccc12`, the IC50 in test [2] turned out to be 2700 nM; in test [3], 260 nM.
Regarding `CN(C)c1nc(NC2CCN(S(=O)(=O)c3ccc(Br)cc3OC(F)(F)F)CC2)nc2ccccc12`, the IC50 in test [1] was 250 nM; in test [3], 170 nM.
Turning to `CN(C)c1nc(NCC2CCC(CNCc3ccc(Br)cc3OC(F)(F)F)CC2)nc2ccccc12` (stereo unspecified), the IC50 turned out to be 960 nM in test [1], 560 nM in test [2] and 31 nM in test [3].
